Reference: US10406238B2, “Ligand ionophore conjugates” (PURDUE RESEARCH FOUNDATION, priority 2015, dated 2019)

How the values were obtained:
folate receptors = settings: read-out: binding affinity Kd; cited from earlier work
FRβ-expressing RAW cells = experiment: Endosomal escape in FRβ-expressing RAW cells (confocal); assay type: cell-based
KB cells [1] = system: KB cells
KB cells [2] = experiment: cells; settings: Homo sapiens, read-out: IC50 concentration, growth of KB cells
KB cells [3] = experiment: Confocal microscopy for endosomal release in KB cells; assay type: cell-based, human
folate receptor = biological target: T1, folate receptor (Homo sapiens, UniProt P15328); experiment: Binding affinity to folate receptors in KB cells
T1 construct: endogenous in cells; host or cells: KB cells (human; maintained at Purdue Cancer Cell Culture Facility)
T1 sequence (P15328 25-234): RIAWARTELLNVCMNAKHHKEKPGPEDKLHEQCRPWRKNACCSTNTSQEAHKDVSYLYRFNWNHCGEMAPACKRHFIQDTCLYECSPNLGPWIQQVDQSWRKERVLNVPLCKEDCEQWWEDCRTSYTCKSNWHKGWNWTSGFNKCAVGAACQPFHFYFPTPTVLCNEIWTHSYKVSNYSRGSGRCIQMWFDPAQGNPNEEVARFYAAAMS

Nc1nc2ncc(CNc3ccc(C(=O)N[C@@H](CCC(=O)O)C(=O)O)cc3)nc2c(=O)[nH]1 [Folic acid]
Kd (folate receptors): 0.1 nM

CCN(CC)c1ccc2c(-c3ccc(S(=O)(=O)NCCSSC[C@H](CC(=O)O)NC(=O)[C@H](CCCCN)NC(=O)[C@H](CC(=O)O)NC(=O)CC[C@H](NC(=O)c4ccc(NCc5cnc6nc(N)[nH]c(=O)c6n5)cc4)C(=O)O)cc3S(=O)(=O)[O-])c3ccc(=[N+](CC)CC)cc-3oc2c1 [compound 2, reference compound]
accumulation of dye inside the endosomes (FRβ-expressing RAW cells; 10 nM FR, by 2 h, with or without folate-nigericin conjugate 1): significant accumulation

CO[C@@H]1C[C@@H](C[C@H]2CC[C@H](C)[C@H]([C@@H](C)C(=O)O)O2)O[C@]2(O[C@](C)([C@H]3CC[C@@](C)([C@@H]4O[C@@H]([C@H]5O[C@@](O)(CO)[C@H](C)C[C@@H]5C)C[C@@H]4C)O3)C[C@H]2C)[C@@H]1C [nigericin]
toxicity to the cells (KB cells [1]): not toxic | IC50 (KB cells [2]): 12 µM

CO[C@@H]1C[C@@H](C[C@H]2CC[C@H](C)C([C@@H](C)C(=O)OCCSSC[C@H](NC(=O)[C@H](CC(=O)O)NC(=O)[C@H](CC(=O)O)NC(=O)[C@H](CCCNC(=N)N)NC(=O)[C@H](CC(=O)O)NC(=O)CC[C@H](NC(=O)c3ccc(NCc4cnc5nc(N)[nH]c(=O)c5n4)cc3)C(=O)O)C(=O)O)O2)O[C@]2(O[C@@](C)(C3CC[C@@](C)([C@@H]4O[C@@H]([C@@H]5O[C@@](O)(CO)[C@H](C)C[C@@H]5C)C[C@@H]4C)O3)C[C@H]2C)[C@@H]1C (some centres unmarked) [conjugate 1]
effective concentration for co-incubation (KB cells [3]): 200 nM | endosomal release of the rhodamine dye (KB cells [3]): lower | release of rhodamine dye from the endosome (KB cells [3]): considerable release | time of high release of rhodamine dye from endosomes (KB cells [3]): 1 to 3 h | binding affinity to folate receptors compared to folate-rhodamine compound 2 (folate receptor): 5 times lower | endosome size versus cells not treated with conjugate (FRβ-expressing RAW cells; 100 nM FN with 10 nM FR, FIG. 9): somewhat larger

CO[C@@H]1C[C@@H](C[C@H]2CC[C@H](C)C([C@@H](C)C(=O)O)O2)O[C@]2(O[C@@](C)(C3CC[C@@](C)([C@@H]4O[C@@H]([C@@H]5O[C@@](O)(COC(=O)NCCSSC[C@H](NC(=O)[C@H](CC(=O)O)NC(=O)[C@H](CC(=O)O)NC(=O)[C@H](CCCNC(=N)N)NC(=O)[C@H](CC(=O)O)NC(=O)CC[C@H](NC(=O)c6ccc(NCc7cnc8nc(N)[nH]c(=O)c8n7)cc6)C(=O)O)C(=O)O)[C@H](C)C[C@@H]5C)C[C@@H]4C)O3)C[C@H]2C)[C@@H]1C (some centres unmarked) [conjugate 5]
binding affinity to folate receptors compared to folate-rhodamine compound 2 (folate receptor): three times lower
